Columns and labels:
[1] = target: T1, arylacetamide deacetylase-like 1 (AADACL1) (Homo sapiens, UniProt Q6PIU2); assay: hydrolysis of exogenous HAG in human platelet lysate, blocked by JW480; format: cell-based
T1 sequence (Q6PIU2 1-408): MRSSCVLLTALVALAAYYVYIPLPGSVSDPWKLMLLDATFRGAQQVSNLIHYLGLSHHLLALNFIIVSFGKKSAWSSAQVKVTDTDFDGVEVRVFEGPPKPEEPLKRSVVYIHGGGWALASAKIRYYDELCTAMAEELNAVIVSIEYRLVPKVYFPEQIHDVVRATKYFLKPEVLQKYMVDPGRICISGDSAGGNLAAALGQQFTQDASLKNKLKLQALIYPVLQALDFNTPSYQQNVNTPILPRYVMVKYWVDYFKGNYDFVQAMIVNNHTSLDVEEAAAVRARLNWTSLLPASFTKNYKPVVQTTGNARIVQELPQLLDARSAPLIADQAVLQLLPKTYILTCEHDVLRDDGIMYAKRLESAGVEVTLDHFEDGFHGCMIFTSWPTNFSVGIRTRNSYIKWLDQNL

[2] = target: T1, arylacetamide deacetylase-like 1 (AADACL1); assay: HAG hydrolysis activity in lysates of JW480-treated human platelets; format: cell-based

Row | % inhibition at 2 μM [2] [% inhibition at 2] | SMILES | hydrolysis of exogenous HAG in human platelet lysate, blocked by JW480 [1]
1 |  | CCCCCCCCCCCCCCCCOC[C@H](CO)OC(C)=O [HAG, 1-O-hexadecyl-2-O-acetyl-sn-glycerol] | AADACL1 also hydrolyzes HAG to its corresponding monoalkylglycerol ether (C16 MAGE) in human platelets
2 | 90 ± 0.56 | CC(C)c1ccccc1OC(=O)NCCc1ccc2ccccc2c1 [JW480] | 

From article PMC3948353 (Chemistry & biology, 2013)
